Converted amounts (≈) assume the structure as drawn.
How the values were obtained:
[1] = target: T1, Sterol 24-C-methyltransferase (Candida albicans (strain SC5314 / ATCC MYA-2876) (Yeast), UniProt O74198); assay: Inhibition of N-terminal His-tagged Candida albicans SC5314 Erg6 extracted from Escherichia coli BL21 (DE3) methyltransferase activity using zymosterol as substrate pre-incubated for 15 mins followed by substrate addition by liquid scintillation counter analysis
T1 sequence (O74198 whole entry): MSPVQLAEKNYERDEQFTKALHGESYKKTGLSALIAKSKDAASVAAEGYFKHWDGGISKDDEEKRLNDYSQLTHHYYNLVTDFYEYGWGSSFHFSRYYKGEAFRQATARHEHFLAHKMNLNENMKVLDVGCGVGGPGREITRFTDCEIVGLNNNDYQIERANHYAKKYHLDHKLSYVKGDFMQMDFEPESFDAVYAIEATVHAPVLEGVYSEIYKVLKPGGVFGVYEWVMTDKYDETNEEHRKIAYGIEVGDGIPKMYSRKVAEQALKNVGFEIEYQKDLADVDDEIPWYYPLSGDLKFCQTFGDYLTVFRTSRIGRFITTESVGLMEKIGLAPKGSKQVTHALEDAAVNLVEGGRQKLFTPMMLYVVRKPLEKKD

Cryptococcus neoformans [2] = assay: Antifungal activity against Cryptococcus neoformans H99; format: functional
Candida albicans [3] = assay: Antifungal activity against fluconazole-resistant Candida albicans 904 assessed as reduction in fungal growth by NCCLS method; format: functional
[4] = target: T1, Sterol 24-C-methyltransferase; assay: Inhibition of Candida albicans SC5314 Erg6
Candida tropicalis [5] = assay: Antifungal activity against Candida tropicalis 5008 assessed as reduction in fungal growth; format: functional
Candida tropicalis [6] = assay: Antifungal activity against Candida tropicalis 3890 assessed as reduction in fungal growth; format: functional
Cryptococcus neoformans [7] = assay: Antifungal activity against Cryptococcus neoformans H99 assessed as fungal growth inhibition measured after 48 hrs by resazurin assay; format: functional
Candida albicans [8] = assay: Antifungal activity against fluconazole-resistant Candida albicans 901 assessed as inhibition of fungal growth; format: functional

Molecule Cc1c(-n2c(-c3ccc(Br)cc3)cs/c2=N\c2ccccc2)c(=O)n(-c2ccccc2)n1C has an IC50 [1] of 0.58 µM.

COc1cc2c(cc1-c1c(C)noc1C)[nH]c1ncnc(NCCCCCCC(=O)NO)c12 showed an MIC80 (Cryptococcus neoformans [2]) of 8 µg/mL (≈ 17.7 µM) and an MIC80 (Candida albicans [3]) of 0.5 µg/mL (≈ 1.1 µM).

For C=C(CC[C@@H](CO)[C@H]1CC[C@@]2(C)C3=C(CC[C@]12C)[C@@]1(C)CC[C@@H](OC(=O)C[C@@](C)(O)CC(=O)O)C(C)(C)[C@@H]1CC3)[C@H](C)C(=O)O, the IC50 [4] was 11.6 µM.

For O=C(CCCCCCCOc1ccc(CN2CCN(CC(O)(Cn3cncn3)c3ccc(F)cc3F)CC2)cc1)NO (centres undefined), the MIC80 (Cryptococcus neoformans [2]) was 0.5 µg/mL (≈ 0.852 µM), the MIC80 (Candida tropicalis [5]) was 0.5 µg/mL (≈ 0.852 µM) and the MIC80 (Candida tropicalis [6]) was 0.5 µg/mL (≈ 0.852 µM).

With Clc1ccc(N/N=C(\c2ccccc2)c2ccccn2)nc1 the MIC50 (Cryptococcus neoformans [7]) was 0.5 µg/mL (≈ 1.62 µM) and the MIC50 (Candida albicans [8]) was 0.5 µg/mL (≈ 1.62 µM).
